# From patent US20210189330A1, “INDUCED TOTIPOTENT STEM CELLS AND METHODS FOR MAKING AND USING THE SAME” (THE J. DAVID GLADSTONE INSTITUTES, A TESTAMENTARY TRUST …, priority 2017, published 2021)
# Tested on: mEpiSCs
# Experiment: mEpiSC conversion culture in first conversion media with Smad inhibitor
# Assay type: cell-based, mouse
# Details: 1 μM on Day 0, 3 μM from Days 1-3; observed Conversion Day 1
# Experimental: Under the conditions tested, the conversion bias toward floating iBCs was less efficient; therefore, more cells were required than for the 3D hemispheres (discussed in example above) in order to observe or harvest iBCs. It is contemplated that optimization of timing and Smad inhibition may vary depending on the cell type used. […] Two phases of media were prepared and cells were fed from days 0-3 (“first conversion media”) and then days 4-7 (“second conversion media”), respectively.
# At Conversion Day 0, approximately 14 hours after preparation of mEpiSCs for conversion, cells were observed as evenly dispersed, mostly single cells. The first conversion media was prepared using CTSFES media with Pen/Strep and 2-Mercaptoethanol described above as the base media and supplemented with BMP4 (10 ng/mL), SB431542 (1 μM on Day 0, 3 μM from Days 1-3), and AA (64 μg/mL). On Conversion Day 1, cells were observed growing with some cells remaining colony-like while others began to flatten at the edges. (FIG. 4). […] At approximately the same time each day, media was replaced and cells were incubated overnight at 37° C.
smiles,measurement,value
NC(=O)c1ccc(-c2nc(-c3ccc4c(c3)OCO4)c(-c3ccccn3)[nH]2)cc1 [SB431542],toxicity to starting mEpiSCs,toxicity was also believed to be killing some cells
